Measurements published in patent US20250144083A1, “METHODS AND COMPOSITIONS FOR TREATING CANCER IN TAXANE-RESISTANT PATIENTS” (MODRA PHARMACEUTICALS B.V., priority 2022, published 2025).
“Also recorded” adds a separate entry of the source. Where two headings read alike, the source gives them in different places.

Experiments:
Assay type in all cases: cell-based
[1] = test system: DU-145 DOC10 prostate cancer cells; assay: 3D clonogenic assay, docetaxel-resistant DU-145 DOC10; conditions: for Relative Resistance to cabazitaxel: compared to parental DU-145 cells without ritonavir; for IC50: Homo sapiens, read-out: IC50 value of cabazitaxel
Procedure: (§1) For the single agent efficacy experiment, a master stock solution of cabazitaxel was prepared by dissolving compound powder in DMSO at a concentration of 10 mM. From this a working stock solution of 0.1 mM (330-fold the highest test concentration) was prepared. Small aliquots of this solution were stored at −20° C. On each day of an experiment, a frozen aliquot of the working stock solution was thawed and stored at room temperature prior to and during treatment. First, serial half-log dilutions of the working stock solution were prepared in DMSO. These dilutions were then diluted 1:22 into cell culture medium in an intermediate dilution plate. Finally, 10 μl taken from the intermediate dilution plate were transferred to 140 μl/well of the final assay plate. Thus, the DMSO working stock was diluted 1:330, and the DMSO concentration in the assay was 0.3% v/v.
(§2) For combination experiments, working stock solutions of docetaxel, ritonavir, elacridar, and cabazitaxel were prepared in DMSO at concentrations of 660-fold the highest test concentration used. Small aliquots of this stock solution were stored at −20° C. On each day of an experiment, a frozen aliquot of the working stock solutions was thawed and stored at room temperature prior to and during treatment. First, 1:2 dilutions of 660-fold concentrated working stocks were done in DMSO (in case of monotherapy controls), or equal amounts of the compound working stocks were mixed (in case of drug combinations). Then, different dilutions of these 330-fold concentrated solutions were done in DMSO to give a 8*2 matrix combination layout. The DMSO dilutions were further diluted 1:22 into cell culture medium (IMDM, supplemented with 20% (v/v) fetal calf serum, 50 μg/ml gentamicin) in an intermediate dilution plate. Finally, 10 μl taken from the intermediate dilution plate were transferred to 140 μl of cells and medium per well of the final assay plate. Thus, the DMSO dilutions used for the mono- and the combination-treatment were diluted 1:330, and the DMSO concentration in the assay was 0.3% v/v.
(§3) DU-145 DOC10 was generated from DU-145 and 22Rv1 DOC8 was generated from 22Rv1. 22Rv1 was obtained from American Type Culture Collection (ATCC, Rockville, MD, USA), whereas DU-145 was obtained from National Cancer Institute (NCI, Bethesda, MD, USA).
(§4) Tumour cell lines were grown at 37° C. in a humidified atmosphere with 5% CO2 in RPMI 1640 medium (Biochrom) supplemented with 10% (v/v) fetal calf serum and 50 μg/ml gentamicin. Docetaxel resistant sublines were cultured in the presence of 8 nM (22Rv1) or 10 nM docetaxel (DU-145). The cells were routinely passaged once or twice weekly and maintained in culture for up to 20 passages. For the assay, cells were harvested using TrypLE and the percentage of viable cells was determined by the CASY TT cell counter (OMNI Life Science).
(§5) The clonogenic assay was carried out in a 96 well plate format using ultra low attachment plates. For each test, cells were prepared and assay plates were prepared as follows: each test well contained a layer of semi-solid medium with tumour cells (50 μl), and a second layer of medium supernatant with or without test compound (100 μl). The cell layer consisted of 2·10^3 to 3·10^3 tumour cells per well, which were seeded in 50 μl/well cell culture medium (IMDM, supplemented with 20% (v/v) fetal calf serum, 50 μg/ml gentamicin, and 0.4% (w/v) agar). After 24 h, the soft-agar layer was covered with 90 μl of the same culture medium without agar, and 10 μl of control medium or test compound after serial dilution in DMSO and transfer in cell culture medium were added, and left on the cells for the duration of the experiment (continuous exposure, 100 μl drug overlay). Every plate included six untreated control wells and drug-treated groups. Duplicate values were obtained by testing single values per condition on one plate. […]

[2] = test system: DU-145 prostate cancer cells; assay: 3D clonogenic assay, parental DU-145; conditions: for IC50: Homo sapiens, read-out: IC50 value of cabazitaxel
Procedure: as §1, §2, §3, §4, §5

[3] = test system: 22Rv1 DOC8 prostate cancer cells; assay: 3D clonogenic assay, docetaxel-resistant 22Rv1 DOC8; conditions: for IC50: Homo sapiens, read-out: IC50 value of cabazitaxel
Procedure: as §1, §2, §3, §4, §5

[4] = test system: 22Rv1 prostate cancer cells; assay: 3D clonogenic assay, parental 22Rv1
Procedure: as §1
as §2, with “Finally, 10 μl taken from the intermediate dilution plate were transferred to 140 μl of cells and medium per well of the final assay plate. Thus, the DMSO dilutions used for the mono- and the combination-treatment were diluted 1:330, and the DMSO concentration in the assay was 0.3% v/v.” left out
Tumour cell lines were grown at 37° C. in a humidified atmosphere with 5% CO2 in RPMI 1640 medium (Biochrom) supplemented with 10% (v/v) fetal calf serum and 50 μg/ml gentamicin. […] For the assay, cells were harvested using TrypLE and the percentage of viable cells was determined by the CASY TT cell counter (OMNI Life Science). […]

## CO[C@H]1C(=O)[C@]2(C)[C@@H](OC)C[C@H]3OC[C@@]3(OC(C)=O)[C@H]2[C@H](OC(=O)c2ccccc2)[C@]2(O)C[C@H](OC(=O)[C@H](O)[C@@H](NC(=O)OC(C)(C)C)c3ccccc3)C(C)=C1C2(C)C [cabazitaxel]
[1]; DU145 DOC10, 10 μM ritonavir
  Relative Resistance to cabazitaxel: 1
[1]; DU145 DOC10 without ritonavir
  Relative Resistance to cabazitaxel: 2.5
[1]; DU-145 DOC10
  tumour cell growth inhibition, monotherapy: inhibited tumour cell growth in a concentration dependent manner
[1]; DU-145, DU145 DOC10, 10 μM ritonavir
  IC50: 0.6 nM
[1]; DU-145, DU145 DOC10, without ritonavir
  IC50: 1.5 nM
[1]; printed: DU-145 DOC8 vs. DU-145
  shift of the IC50 value of cabazitaxel, monotherapy: 2.7 fold
[2]; DU-145
  tumour cell growth inhibition, monotherapy: inhibited tumour cell growth in a concentration dependent manner
[2]; DU-145, DU145, 10 μM ritonavir
  IC50: 0.3 nM
[2]; DU-145, DU145, without ritonavir
  IC50: 0.6 nM
[3]; 22Rv1 DOC8
  tumour cell growth inhibition, monotherapy: inhibited tumour cell growth in a concentration dependent manner
[3]; 22Rv1 DOC8 without ritonavir, compared to parental 22Rv1 cells without ritonavir
  Relative Resistance to cabazitaxel: 14
[3]; 22Rv1, 22Rv1 DOC8, 10 μM ritonavir
  IC50: 5.2 nM
[3]; 22Rv1, 22Rv1 DOC8, 32 μM ritonavir
  IC50: 0.7 nM
[3]; 22Rv1, 22Rv1 DOC8, without ritonavir
  IC50: 9.5 nM
[3]; printed: for 22Rv1 compared to 22Rv1
  fold higher relative IC50 value of cabazitaxel, monotherapy: 14.5 fold
[4]; 22Rv1
  tumour cell growth inhibition, monotherapy: inhibited tumour cell growth in a concentration dependent manner
[4]; Homo sapiens, 22Rv1, without ritonavir, read-out: IC50 value of cabazitaxel
  IC50: 0.7 nM

## COc1cc2c(cc1OC)CN(CCc1ccc(NC(=O)c3cccc4c(=O)c5cccc(OC)c5[nH]c34)cc1)CC2 [elacridar]
[1]; DU-145 DOC10, by elacridar
  reversal of docetaxel resistance: reverses docetaxel resistance
[3]; 22Rv1 DOC8, by elacridar
  reversal of docetaxel resistance: reverses docetaxel resistance

## CC(C)c1nc(CN(C)C(=O)N[C@H](C(=O)N[C@@H](Cc2ccccc2)C[C@H](O)[C@H](Cc2ccccc2)NC(=O)OCc2cncs2)C(C)C)cs1 [ritonavir]
[1]; DU145 DOC10, by ritonavir
  reversal of cabazitaxel resistance: reverses cabazitaxel resistance
[1]; DU145 DOC10, ritonavir alone
  ritonavir concentration that inhibits growth: ≥ 10 µM
[1]; DU-145 DOC10, by ritonavir
  reversal of docetaxel resistance: reverses docetaxel resistance
[2]; DU145, ritonavir alone
  ritonavir concentration that inhibits growth: ≥ 10 µM
[3]; 100 μM ritonavir, cell line not given
  tumour colony formation: inhibited tumour colony formation completely
[3]; 22Rv1 DOC8, by ritonavir
  reversal of cabazitaxel resistance: completely reverted; also recorded: reverses cabazitaxel resistance
  reversal of docetaxel resistance: reverses docetaxel resistance
